Experimental findings from ChEMBL document CHEMBL1201862, “PubChem BioAssay data set” (2004) are described below.

Structures are written as SMILES.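 Tested at 5 concentrations; 48 h exposure; 96-well plates; endpoints linearly interpolated, else capped at highest concentration. GI50 marks 50% less growth.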 Active and inactive are the calls of the source. Cut-off read from the data, not from the text of the source: active = GI50 up to about 1.1 µM and inactive = higher.

What all share (assay): NCI tumour cell line growth inhibition, 48 h
Experiment [1] has as its system A498.
The test system of experiment [2] is ACHN.
The subject of experiment [3] is CCRF-CEM.
Experiment [4] deals with DU-145.
The subject of experiment [5] is HCT-116.
The test system of experiment [6] is HOP-92.
In experiment [7] the test system is KM12.
Experiment [8] concerns LOX IMVI.
Experiment [9] has as its system MOLT-4.
In experiment [10] the test system is NCI-H226.
Experiment [11] relates to NCI-H23.
For experiment [12], the system named is NCI-H522.
The subject of experiment [13] is OVCAR-3.
In experiment [14] the test system is OVCAR-8.
Experiment [15] relates to RPMI-8226.
In experiment [16] the test system is SK-OV-3.
Experiment [17] has as its system SN12C.
The subject of experiment [18] is U-251.
Experiment [19] relates to UACC-257.
Experiment [20] deals with UACC-62.

`CCOC(=O)C1(C#N)OC(=O)c2cnccc21` (centres undefined): the GI50 was > 100 µM (inactive) in experiment [1]; 58.6 µM (inactive) in [2]; > 100 µM (inactive) in [3]; > 100 µM (inactive) in experiment [4]; > 100 µM (inactive) in [5]; > 100 µM (inactive) in experiment [6]. Further, the GI50 in experiment [7], in experiment [8], in experiment [9], in experiment [10], in [11] and in experiment [12] was > 100 µM (inactive) in each case. For the same compound, the GI50 in [13], in [14], in experiment [15], in experiment [16], in experiment [17] and in [18] was > 100 µM (inactive) each time. Also, the GI50 in [19] and in experiment [20] was > 100 µM (inactive) in each case.

For the compound `CCCCCCCC(=O)O[C@H]1[C@H]2[C@@H](CC1(C)C)C(=O)[C@]13O[C@H]1C(=O)[C@]1(CO1)[C@]23C`, the GI50 was 9.16 µM (inactive) in experiment [1]; 2 µM (inactive) in experiment [2]; 0.0615 µM (active) in [3]; 14.8 µM (inactive) in experiment [4]; 1.97 µM (inactive) in [6]; 7.73 µM (inactive) in experiment [7]. In addition, the GI50 was 1.34 µM (inactive) in experiment [8]; 0.251 µM (active) in experiment [9]; 13.9 µM (inactive) in experiment [10]; 3.46 µM (inactive) in experiment [11]; 1.3 µM (inactive) in experiment [12]; 2.91 µM (inactive) in [13]. The GI50 is 2.48 µM (inactive) in experiment [14]; 0.556 µM (active) in [15]; 34.3 µM (inactive) in experiment [16]; 4.17 µM (inactive) in experiment [17]; 7.83 µM (inactive) in experiment [18]; 2.85 µM (inactive) in [19]. The GI50 in experiment [20] is 3.55 µM (inactive).

On to `Cc1ccc(C2SCC(=O)N2c2ccc(-n3c(-c4ccccc4)nc4ccccc4c3=O)cc2)cc1` (centres undefined), for which the GI50 in experiment [1] is 26.1 µM (inactive); in experiment [2], 16.6 µM (inactive); in experiment [3], 8.18 µM (inactive); in experiment [4], 31 µM (inactive); in [5] it was 7.82 µM (inactive); in experiment [6], 15.2 µM (inactive). Further, the GI50 is 16.6 µM (inactive) in experiment [7]; 9.98 µM (inactive) in experiment [8]; 7.1 µM (inactive) in experiment [9]; 18.5 µM (inactive) in experiment [10]; 36.4 µM (inactive) in experiment [11]; 13.5 µM (inactive) in [12]. Moreover, the GI50 is 13.2 µM (inactive) in experiment [13]; 16.2 µM (inactive) in experiment [14]; 13.7 µM (inactive) in experiment [15]; 4.95 µM (inactive) in experiment [16]; 37.8 µM (inactive) in experiment [17]; 5.3 µM (inactive) in [18]. In addition, the GI50 in experiment [19] was 24.9 µM (inactive); in [20], 11.5 µM (inactive).

As for `CC(=O)O[C@@H]1[C@H](OC2CCCCC2(c2ccccc2)c2ccccc2)O[N+]([O-])=CC12CCCCC2` (some centres undefined), the GI50 in experiment [1] was 16.3 µM (inactive); in experiment [2], 17.6 µM (inactive); in [3], 0.17 µM (active); in [4], 18.1 µM (inactive); in experiment [5], 17.6 µM (inactive); in experiment [6] it was 24.5 µM (inactive). In addition, the GI50 in [7] is 17.2 µM (inactive); in [8], 22 µM (inactive); in [9], 52 µM (inactive); in experiment [10], 14.1 µM (inactive); in [11], 10.2 µM (inactive); in experiment [12], 18.6 µM (inactive). The GI50 in experiment [13] is 14.9 µM (inactive); in experiment [14], 25.5 µM (inactive); in [15], 33 µM (inactive); in experiment [16] it was 13.4 µM (inactive); in experiment [17] it was 19.6 µM (inactive); in experiment [18], 17 µM (inactive). The values for the GI50 in [19] and in experiment [20] were 17.1 µM (inactive) and 17.7 µM (inactive), respectively.

Take `O=NC1C(Cl)C2CC1C1C(Br)C(Br)CC21` (centres undefined): the GI50 in [1] was > 100 µM (inactive); in experiment [2] it was > 100 µM (inactive); in experiment [3], 62.7 µM (inactive); in experiment [4], > 100 µM (inactive); in experiment [5], > 100 µM (inactive); in experiment [6] it was > 100 µM (inactive). Moreover, the GI50 in experiment [7], in [8], in experiment [9], in [10], in experiment [11] and in experiment [12] was > 100 µM (inactive) throughout. Moreover, the GI50 in experiment [13] was > 100 µM (inactive); in experiment [14], > 100 µM (inactive); in experiment [15], 20.8 µM (inactive); in [16], > 100 µM (inactive); in experiment [17] it was > 100 µM (inactive); in experiment [18], > 100 µM (inactive). Besides, the GI50 in [20] is > 100 µM (inactive).

In the case of `COc1ccc2/c(=C/c3ccc(N(C)C)cc3)c3cc(-c4ccccc4)[n+](C)n3c2c1`, the GI50 in experiment [1] was 0.408 µM (active); in experiment [2], 0.405 µM (active); in experiment [3], 0.395 µM (active); in [4], 0.179 µM (active); in experiment [5], 0.17 µM (active); in experiment [6], 0.0931 µM (active). The GI50 was 0.192 µM (active) in experiment [7]; 0.161 µM (active) in experiment [8]; 0.18 µM (active) in experiment [9]; 0.265 µM (active) in [10]; 0.158 µM (active) in experiment [11]; 0.153 µM (active) in [12]. Moreover, the GI50 in [13] is 0.0834 µM (active); in [14] it was 0.0568 µM (active); in experiment [15] it was 0.0263 µM (active); in experiment [16] it was 0.282 µM (active); in [17], 0.223 µM (active); in experiment [18], < 0.0318 µM (active). Further, the results for the GI50 in experiment [19] and in experiment [20] were 0.135 µM (active) and 0.199 µM (active), respectively.

Consider `C[n+]1cc2cc(O)c(O)cc2c2ccc3cc(O)c(O)cc3c21.c1ccncc1`, for which the GI50 in experiment [1] is 2.51 µM (inactive); in experiment [2], 2.69 µM (inactive); in experiment [3], 1.17 µM (inactive); in experiment [4] it was 3.57 µM (inactive); in experiment [5] it was 1.4 µM (inactive); in [6], 2.31 µM (inactive). The GI50 was 3.96 µM (inactive) in experiment [7]; 2.61 µM (inactive) in [8]; 0.912 µM (active) in experiment [9]; 4.86 µM (inactive) in experiment [10]; 2.42 µM (inactive) in experiment [11]; 0.617 µM (active) in experiment [12]. For the same compound, the GI50 is 2.37 µM (inactive) in experiment [13]; 3.1 µM (inactive) in experiment [14]; 5.4 µM (inactive) in experiment [15]; 4.33 µM (inactive) in experiment [16]; 2.96 µM (inactive) in experiment [17]; 1.6 µM (inactive) in experiment [18]. Further, the GI50 is 4.25 µM (inactive) in [19] and 1.75 µM (inactive) in experiment [20].

`COC12c3ccccc3-c3ccccc3C1[C@H]1C(=O)OC(=O)[C@H]12` (some centres undefined): the GI50 in [1], in experiment [2], in experiment [3], in [4], in [6] and in experiment [7] was > 10 µM (inactive) in each case. In addition, the GI50 in experiment [8], in [9], in [10], in experiment [11], in experiment [12] and in [13] was > 10 µM (inactive) throughout. In addition, the GI50 in experiment [14], in [15], in [16], in experiment [17], in experiment [18] and in [19] was > 10 µM (inactive) each time.

Consider `COc1c(Cl)ccc(Cl)c1-c1nnc(-c2c(Cl)c(Cl)c(Cl)c(Cl)c2-c2nc3cc(C(=O)c4ccccc4)ccc3[nH]2)o1`, for which the GI50 in [1] is 24.8 µM (inactive); in [2], > 100 µM (inactive); in experiment [3], 24.9 µM (inactive); in experiment [4], > 100 µM (inactive); in experiment [5], 63.1 µM (inactive); in experiment [6] it was 53.7 µM (inactive). Besides, the GI50 was 45.5 µM (inactive) in [7]; 54.1 µM (inactive) in [8]; 26.4 µM (inactive) in experiment [9]; 26.5 µM (inactive) in [10]; 78.2 µM (inactive) in experiment [11]; 22.9 µM (inactive) in experiment [12]. Besides, the GI50 in experiment [13] was 53.2 µM (inactive); in experiment [14] it was > 100 µM (inactive); in [15] it was 23.8 µM (inactive); in [16] it was > 100 µM (inactive); in experiment [17], 64.7 µM (inactive); in experiment [18] it was 61 µM (inactive). Also, the GI50 in [19] is 82.2 µM (inactive).

For the compound `Cc1sccc1C(=S)Nc1ccc(Cl)c(/C=N/OC(C)(C)C)c1`, the GI50 was 23.8 µM (inactive) in experiment [1]; 21.3 µM (inactive) in experiment [3]; 14.6 µM (inactive) in experiment [4]; 14.1 µM (inactive) in experiment [5]; 13.9 µM (inactive) in experiment [6]; 13.2 µM (inactive) in experiment [7]. The GI50 was 26.6 µM (inactive) in experiment [8]; 7.6 µM (inactive) in [9]; 13.9 µM (inactive) in [10]; 15.4 µM (inactive) in [11]; 12 µM (inactive) in experiment [12]; 13.9 µM (inactive) in experiment [13]. Besides, the GI50 in experiment [14] was 17.1 µM (inactive); in experiment [15], 7.31 µM (inactive); in experiment [16], 21.9 µM (inactive); in experiment [17], 12.5 µM (inactive); in experiment [18], 21.6 µM (inactive); in experiment [19] it was 17 µM (inactive). In addition, the GI50 in experiment [20] is 16.6 µM (inactive).
